{"source": "patent US20250290151A1", "about": "“Differentially-Methylated Regions of the Genome Useful as Markers of Embryo-Adult Transitions” (priority 2019, published 2025)", "key": {"[1]": {"tested_on": "xenograft breast tumors derived from the breast cancer cell line MCF-7", "experiment": "COX7A1 expression in MCF-7 xenograft breast tumors after doxorubicin", "assay_type": "in vivo", "details": "MCF-7 xenograft breast tumors treated with doxorubicin; controls 3.84 and 4.52", "excerpt": "The present invention instead teaches the contrary, that these surviving CSCs are instead cancer cells that display a post-EFT pattern (i.e. a more mature pattern) of gene expression. Using the expression of the gene COX7A1 as a transcriptional marker of pre- or post-EFT cells wherein COX7A1 is expressed in post-EFT cells, we observe that pancreatic cancer with ablated KRAS leading to pancreatic CSCs, results in increased COX7A1 and CAT (also a post-EFT marker), not decreased as predicted by current models (FIG. 10). In addition, the treatment of xenograft breast tumors derived from the breast cancer cell line MCF-7 with the anti-tumor anthracycline antibiotic doxorubicin results in COX7A1 RFU levels of 5.04 and 5.57 compared to controls of 3.84 and 4.52 in controls, again indicative of the more mature state of surviving cells following chemotherapy. In addition, in the example of rectal cancer, levels of COX7A1 expression were 92.7 RFUs following radiotherapy compared to 75 RFUs in untreated rectal cancer (p<0.05). […]"}, "[2]": {"tested_on": "normal pre-EFT vascular progenitors", "experiment": "TUNEL apoptosis assay after camptothecin, pre-EFT vascular progenitors", "assay_type": "cell-based, human", "details": "37 uM camptothecin, 24 h", "method": "(§1) The pre-EFT (DC) fibrosarcoma cell line HT1080 was infected with lentivirus expressing COX7A1 together with a control line expressing green fluorescent protein (GFP). The resulting cells were treated with 0, 0.37, and 37 uM camptothecin to generate a DNA damage response and apoptosis. TUNEL (TdT-mediated dUTP-X nick end labeling) adds label to termini of ssDNA and dsDNA. Readout used was fluorescent nuclei read by microscopy. In brief, cell lines were cultured in 96-well plates at 5000 cells/well and grown over night. The following day, the growth medium was removed and replaced with growth medium containing compounds and controls. After 24 h, the cells are fixed for 20 minutes using 4% PFA. Plates are stored at 4 deg C. in PBS until processing. Fixed cells were permeabilized with 0.1% Triton X-100 and 0.1% sodium citrate for 2 minutes on ice. […] 9 images per well were collected and analyzed for total cell number and number of cells stained for apoptosis.\n(§2) Similarly, normal pre-EFT vascular progenitors were more sensitive to apoptosis at 37 uM of camptothecin (39% apoptosis) compared to adult aortic endothelial counterparts (25.5% apoptosis). In addition, H2O2-mediated apoptosis was measured in post-EFT cells (adult bone marrow MSCs) before and after knock-down of COX7A1 expression."}, "[3]": {"tested_on": "fibrosarcoma cell line HT1080", "experiment": "TUNEL apoptosis assay after camptothecin, HT1080 expressing COX7A1 vs GFP control", "assay_type": "cell-based, human", "details": "0, 0.37 and 37 uM camptothecin, 24 h, p<0.05", "method": "as §1, §2"}, "[4]": {"tested_on": "adult aortic endothelial counterparts", "experiment": "TUNEL apoptosis assay after camptothecin, adult aortic endothelial cells", "assay_type": "cell-based, human", "details": "37 uM camptothecin, 24 h", "method": "as §1, §2"}, "adult bone marrow MSCs": {"tested_on": "adult bone marrow MSCs", "experiment": "H2O2-mediated apoptosis (survival) before and after knock-down of COX7A1", "assay_type": "cell-based, human", "details": "300 uM H2O2", "method": "as §2"}}, "note": "Where “and” joins values, the source holds several entries; their conditions need not be identical. Equal values may be shown once."}
{"smiles": "COc1cccc2c1C(=O)c1c(O)c3c(c(O)c1C2=O)C[C@@](O)(C(=O)CO)C[C@@H]3O[C@H]1C[C@H](N)[C@H](O)[C@H](C)O1", "note": "[doxorubicin]", "values": [{"measurement": "COX7A1 RFU levels", "setting": "[1]", "result": "5.04 RFU and 5.57 RFU"}]}
{"smiles": "CC[C@@]1(O)C(=O)OCc2c1cc1n(c2=O)Cc2cc3ccccc3nc2-1", "note": "[camptothecin]", "values": [{"measurement": "apoptosis", "setting": "[2]", "result": 39, "unit": "%"}, {"measurement": "sensitivity to apoptosis (TUNEL)", "setting": "[3]", "result": "significantly decreased sensitivity to apoptosis"}, {"measurement": "apoptosis", "setting": "[4]", "result": 25.5, "unit": "%"}]}
{"smiles": "OO", "note": "[H2O2]", "values": [{"measurement": "cells surviving", "setting": "adult bone marrow MSCs; MSCs after knockdown of COX7A1 (iTR modality), p<0.05", "result": 59.8, "unit": "%"}, {"measurement": "cells surviving", "setting": "adult bone marrow MSCs; normal adult bone marrow MSCs", "result": 82.4, "unit": "%"}]}
